Measured values published in article PMC4188605, “Biochemical and Pharmacological Characterization of the Human Lymphocyte Antigen B-Associated Transcript 5 (BAT5/ABHD16A)” (PLoS ONE, 2014).
Several values for one entry are separate records, joined by “and”; a condition that tells them apart may be missing. Equal values may be shown once.

Key:
hABHD6 = target: T1, hABHD6 (Homo sapiens, UniProt Q9BV23); experiment: Hydrolase activity assay, hABHD6-HEK lysates; format: biochemical; details: hABHD6-HEK lysates; read-out: IC50
T1 construct: expressed in transfected cells; host or cells: HEK293
T1 sequence (Q9BV23 1-337): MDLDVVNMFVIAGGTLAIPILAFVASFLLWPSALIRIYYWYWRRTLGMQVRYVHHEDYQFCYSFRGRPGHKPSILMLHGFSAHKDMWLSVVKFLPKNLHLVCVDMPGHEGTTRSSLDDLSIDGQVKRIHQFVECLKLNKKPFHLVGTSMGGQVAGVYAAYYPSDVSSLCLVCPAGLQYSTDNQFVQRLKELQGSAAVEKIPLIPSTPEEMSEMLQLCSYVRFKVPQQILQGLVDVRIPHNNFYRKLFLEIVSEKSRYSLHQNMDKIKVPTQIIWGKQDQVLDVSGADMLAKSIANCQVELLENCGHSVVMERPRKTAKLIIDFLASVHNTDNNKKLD

hABHD12 = target: T2, hABHD12 (Homo sapiens, UniProt Q8N2K0); experiment: Hydrolase activity assay, hABHD12-HEK lysates; format: biochemical
T2 construct: expressed in transfected cells; host or cells: HEK293
T2 sequence (Q8N2K0 1-398): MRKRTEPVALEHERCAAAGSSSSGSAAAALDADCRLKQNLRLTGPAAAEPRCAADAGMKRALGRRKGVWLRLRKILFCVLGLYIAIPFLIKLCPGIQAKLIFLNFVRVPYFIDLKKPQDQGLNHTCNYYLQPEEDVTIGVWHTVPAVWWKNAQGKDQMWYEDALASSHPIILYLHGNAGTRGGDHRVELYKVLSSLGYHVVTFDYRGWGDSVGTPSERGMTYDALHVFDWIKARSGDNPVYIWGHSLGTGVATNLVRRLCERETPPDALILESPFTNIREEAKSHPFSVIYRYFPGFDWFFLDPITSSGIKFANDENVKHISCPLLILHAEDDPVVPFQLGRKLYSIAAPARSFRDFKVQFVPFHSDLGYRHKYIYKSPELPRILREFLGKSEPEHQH

mBAT5 = target: T3, mBAT5 (Mus musculus, UniProt Q9Z1Q2); experiment: Competitive ABPP (TAMRA-FP) with mBAT5-HEK293 lysates; details: 1 h pretreatment
T3 sequence (Q9Z1Q2 1-558): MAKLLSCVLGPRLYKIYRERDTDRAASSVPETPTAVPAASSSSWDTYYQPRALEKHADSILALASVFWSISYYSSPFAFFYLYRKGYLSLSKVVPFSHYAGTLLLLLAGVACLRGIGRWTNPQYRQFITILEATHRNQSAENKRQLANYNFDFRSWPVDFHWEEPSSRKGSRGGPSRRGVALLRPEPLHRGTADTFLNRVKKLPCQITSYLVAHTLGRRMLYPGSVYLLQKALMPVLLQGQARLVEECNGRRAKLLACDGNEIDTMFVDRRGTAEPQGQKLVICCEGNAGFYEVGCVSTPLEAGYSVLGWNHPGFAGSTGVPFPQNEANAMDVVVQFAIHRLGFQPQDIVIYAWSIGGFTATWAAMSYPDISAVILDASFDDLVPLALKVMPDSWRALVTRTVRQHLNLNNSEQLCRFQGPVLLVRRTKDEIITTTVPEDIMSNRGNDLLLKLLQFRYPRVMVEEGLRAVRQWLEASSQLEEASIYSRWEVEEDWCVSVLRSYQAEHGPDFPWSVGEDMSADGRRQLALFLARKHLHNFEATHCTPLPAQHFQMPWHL
Protocol: Inhibitor dose–response curves and IC50 values derived thereof were calculated from non-linear regressions using GraphPad Prism 5.0 for Windows. The logIC50 values are means ± SEM from three independent experiments. […] The data are derived from three separate ABPP experiments.

hBAT5 = target: T4, hBAT5 (Homo sapiens, UniProt O95870); experiment: Inhibition of 1-LG hydrolysis in hBAT5-HEK293 lysates (fluorescent glycerol assay); format: biochemical; set-up: host or cells: HEK293
T4 sequence (O95870 1-558): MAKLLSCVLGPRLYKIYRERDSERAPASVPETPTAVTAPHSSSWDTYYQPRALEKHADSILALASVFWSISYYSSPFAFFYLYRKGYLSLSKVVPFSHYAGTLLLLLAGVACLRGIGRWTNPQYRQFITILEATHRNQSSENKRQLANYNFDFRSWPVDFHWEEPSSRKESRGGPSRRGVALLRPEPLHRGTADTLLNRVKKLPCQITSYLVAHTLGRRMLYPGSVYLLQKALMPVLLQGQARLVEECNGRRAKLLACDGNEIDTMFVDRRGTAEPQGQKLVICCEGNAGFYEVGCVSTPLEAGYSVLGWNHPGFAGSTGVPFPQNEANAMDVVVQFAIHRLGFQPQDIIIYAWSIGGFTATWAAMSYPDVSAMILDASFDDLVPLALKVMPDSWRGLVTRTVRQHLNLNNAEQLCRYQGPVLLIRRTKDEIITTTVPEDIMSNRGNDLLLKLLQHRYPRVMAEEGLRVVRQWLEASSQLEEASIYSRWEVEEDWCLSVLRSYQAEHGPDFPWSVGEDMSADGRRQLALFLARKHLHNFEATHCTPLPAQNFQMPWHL

hMAGL = target: T5, hMAGL (Homo sapiens, UniProt Q99685); experiment: Hydrolase activity assay, hMAGL-HEK lysates; format: biochemical
T5 construct: expressed in transfected cells; host or cells: HEK
T5 sequence (Q99685 1-303): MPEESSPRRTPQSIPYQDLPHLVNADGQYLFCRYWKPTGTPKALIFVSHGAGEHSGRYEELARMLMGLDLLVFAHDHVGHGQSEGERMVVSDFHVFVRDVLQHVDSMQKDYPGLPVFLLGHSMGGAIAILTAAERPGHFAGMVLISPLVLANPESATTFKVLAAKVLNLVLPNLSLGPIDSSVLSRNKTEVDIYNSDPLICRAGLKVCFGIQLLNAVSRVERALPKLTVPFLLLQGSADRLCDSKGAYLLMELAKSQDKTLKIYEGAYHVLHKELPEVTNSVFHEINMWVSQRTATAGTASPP

hFAAH = target: T6, hFAAH (Homo sapiens, UniProt O00519); experiment: FAAH activity assay, hFAAH-COS7 membranes (3H-anandamide); format: biochemical
T6 construct: expressed in transfected cells; host or cells: COS-7
T6 sequence (O00519 1-579): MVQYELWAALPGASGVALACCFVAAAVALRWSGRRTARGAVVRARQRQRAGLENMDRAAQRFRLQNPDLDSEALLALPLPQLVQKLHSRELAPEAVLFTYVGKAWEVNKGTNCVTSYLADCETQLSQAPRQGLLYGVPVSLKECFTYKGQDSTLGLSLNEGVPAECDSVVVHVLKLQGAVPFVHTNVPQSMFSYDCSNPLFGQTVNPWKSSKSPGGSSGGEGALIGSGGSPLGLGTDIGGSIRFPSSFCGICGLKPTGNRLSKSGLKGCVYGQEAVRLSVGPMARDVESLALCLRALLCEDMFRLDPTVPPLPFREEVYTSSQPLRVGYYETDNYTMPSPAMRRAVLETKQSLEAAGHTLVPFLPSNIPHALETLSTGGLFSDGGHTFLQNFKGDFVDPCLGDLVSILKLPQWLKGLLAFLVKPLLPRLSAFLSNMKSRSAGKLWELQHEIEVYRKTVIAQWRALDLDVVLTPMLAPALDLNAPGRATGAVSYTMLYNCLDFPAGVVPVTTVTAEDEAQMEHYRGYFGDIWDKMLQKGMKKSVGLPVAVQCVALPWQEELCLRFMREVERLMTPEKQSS

[1] = at 10^−5 M, read-out: Remaining activity

Q: Which IC50 (hABHD6) does the source give for CC(=C\C(=O)O)/C=C(\C)C[C@H](C)CCCC[C@H]1OC(=O)[C@@H]1CO [Hymeglusin, hymeglusin] here?
A: ~3.2 µM and 3.2 µM

Q: What about the “sensitivity of hABHD12 (in words)” value (hABHD12) of the same molecule?
A: resistant

Q: And the remaining activity at 10 µM (hABHD12; [1])?
A: 103%

Q: And the “inhibition of probe binding to mBAT5 (in words)” value (mBAT5)?
A: inactive

Q: And the “hBAT5 inhibitory activity (in words)” value (hBAT5; 1-LG hydrolysis)?
A: inactive

Q: And the remaining activity at 10 µM (hBAT5; at 10^-5 M, 1-LG 25 µM)?
A: 102.6 ± 1%

Q: And the “sensitivity of hMAGL (in words)” value (hMAGL)?
A: resistant

Q: And the remaining activity at 10 µM (hMAGL; [1])?
A: 106%

Q: And the “sensitivity of hFAAH (in words)” value (hFAAH)?
A: resistant

Q: And the remaining activity at 10 µM (hFAAH; [1])?
A: 79.2%
